Key:
RIP = target: T1, RIP (Homo sapiens, UniProt Q13546); experiment: Generic kinase assay (33P-ATP, Myelin Basic Protein); assay type: biochemical; conditions: class symbol: % inhibition at 10 μM or IC50
T1 sequence (Q13546 1-671): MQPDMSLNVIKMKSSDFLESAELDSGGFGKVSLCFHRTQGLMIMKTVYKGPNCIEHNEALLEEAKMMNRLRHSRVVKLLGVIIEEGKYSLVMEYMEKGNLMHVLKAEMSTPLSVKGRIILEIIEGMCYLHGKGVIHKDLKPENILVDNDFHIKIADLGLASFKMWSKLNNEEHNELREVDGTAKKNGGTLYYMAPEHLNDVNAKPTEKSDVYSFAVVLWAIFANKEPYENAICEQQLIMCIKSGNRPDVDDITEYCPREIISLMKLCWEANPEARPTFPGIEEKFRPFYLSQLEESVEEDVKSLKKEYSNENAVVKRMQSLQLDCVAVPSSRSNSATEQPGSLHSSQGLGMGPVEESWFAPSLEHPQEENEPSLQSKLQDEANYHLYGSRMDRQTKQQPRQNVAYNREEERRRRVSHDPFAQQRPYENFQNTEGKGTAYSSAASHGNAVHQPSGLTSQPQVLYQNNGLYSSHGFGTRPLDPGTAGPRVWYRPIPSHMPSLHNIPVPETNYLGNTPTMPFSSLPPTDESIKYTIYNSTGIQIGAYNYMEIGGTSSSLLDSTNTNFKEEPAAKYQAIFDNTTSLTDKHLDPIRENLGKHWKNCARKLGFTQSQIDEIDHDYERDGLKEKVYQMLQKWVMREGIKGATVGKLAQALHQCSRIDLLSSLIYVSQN
Summary of the method: (§1)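 Myelin basic protein was phosphorylated with [γ-33P]ATP plus unlabelled ATP (4 µM in the three-fold concentrated mix) in Tris-HCl pH 7.5, MgCl2 and DTT. Kinase was titrated to about 10% ATP turnover, and reactions ran 1 h at room temperature before EDTA stop. Incorporated 33P was captured on filter plates washed with 0.75% H3PO4 and counted by scintillation.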

RICK = RICK (Homo sapiens, UniProt O43353); experiment: as above; assay type: biochemical; conditions: 1 h; class symbol: % inhibition at 10 μM or IC50; read-out: Inhibitory effect on target RICK
Sequence of RICK (O43353 whole entry, species assumed): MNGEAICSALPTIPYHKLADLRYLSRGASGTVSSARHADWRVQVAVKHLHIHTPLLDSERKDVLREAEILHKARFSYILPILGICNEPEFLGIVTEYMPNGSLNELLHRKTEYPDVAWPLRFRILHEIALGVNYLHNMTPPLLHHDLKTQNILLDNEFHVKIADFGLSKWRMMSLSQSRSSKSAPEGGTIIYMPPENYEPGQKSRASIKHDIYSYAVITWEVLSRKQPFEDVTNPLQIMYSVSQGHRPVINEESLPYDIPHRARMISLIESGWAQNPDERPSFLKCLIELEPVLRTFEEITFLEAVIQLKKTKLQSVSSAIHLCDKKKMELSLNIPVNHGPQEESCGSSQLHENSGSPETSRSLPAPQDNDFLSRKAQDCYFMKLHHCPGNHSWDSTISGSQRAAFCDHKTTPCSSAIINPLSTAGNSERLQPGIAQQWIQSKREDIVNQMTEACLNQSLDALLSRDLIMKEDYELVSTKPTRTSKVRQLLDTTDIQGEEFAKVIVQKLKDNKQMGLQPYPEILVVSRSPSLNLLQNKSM
Summary of the method: as §1

inhibition at 10 µM (RICK): 50 to 90%
Structure (SMILES): Clc1cccc(Nc2cncc(-c3ccncc3)c2)c1 [Compound 166, [3,4′]Bipyridinyl-5-yl-(3-chloro-phenyl)-amine]
Inhibitory effect on target RIP (RIP): A (A: 50-90% inhibition at 10 μM enzyme concentration)

From patent US20090196912A1, “Pyridinylamines” (GPC Botech AG, priority 2004, published 2009)
